{
  "source": "paper PMC4982760",
  "about": "“Small-molecule inhibitors identify the RAD52-ssDNA interaction as critical for recovery from replication stress and for survival of BRCA2 deficient cells” (eLife, 2016)",
  "key": {"[1]": {"target": "T1, interaction between RAD52 and RPA proteins (Homo sapiens, UniProt P43351)", "T1 construct": "made in house", "T1 sequence (P27694 whole entry partner, one chain of several)": "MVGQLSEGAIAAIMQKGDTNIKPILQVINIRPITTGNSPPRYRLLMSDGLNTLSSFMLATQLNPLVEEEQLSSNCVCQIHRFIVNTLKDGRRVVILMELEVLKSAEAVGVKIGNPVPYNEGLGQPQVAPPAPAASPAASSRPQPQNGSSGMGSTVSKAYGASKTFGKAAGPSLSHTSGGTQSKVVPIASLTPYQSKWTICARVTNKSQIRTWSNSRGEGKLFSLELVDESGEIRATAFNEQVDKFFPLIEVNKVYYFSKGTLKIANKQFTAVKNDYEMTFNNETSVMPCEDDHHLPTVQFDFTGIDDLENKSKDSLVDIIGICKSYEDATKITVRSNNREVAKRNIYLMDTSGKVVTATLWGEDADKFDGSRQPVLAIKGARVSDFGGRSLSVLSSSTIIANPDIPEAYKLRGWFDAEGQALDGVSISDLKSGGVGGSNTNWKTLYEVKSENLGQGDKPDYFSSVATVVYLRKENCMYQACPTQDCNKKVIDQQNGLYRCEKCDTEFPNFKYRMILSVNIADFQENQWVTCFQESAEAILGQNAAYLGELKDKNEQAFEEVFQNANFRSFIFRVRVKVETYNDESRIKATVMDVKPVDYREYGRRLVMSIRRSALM", "T1 sequence (P15927 whole entry partner, one chain of several)": "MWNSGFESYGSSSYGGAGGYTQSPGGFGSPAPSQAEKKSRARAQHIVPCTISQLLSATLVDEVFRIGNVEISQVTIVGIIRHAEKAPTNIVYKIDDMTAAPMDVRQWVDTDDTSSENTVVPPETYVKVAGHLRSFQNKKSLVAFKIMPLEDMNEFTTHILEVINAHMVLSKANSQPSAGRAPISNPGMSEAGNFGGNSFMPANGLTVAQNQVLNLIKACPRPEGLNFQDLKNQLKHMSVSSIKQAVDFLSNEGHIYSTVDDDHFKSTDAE", "T1 sequence (P35244 whole entry partner, one chain of several)": "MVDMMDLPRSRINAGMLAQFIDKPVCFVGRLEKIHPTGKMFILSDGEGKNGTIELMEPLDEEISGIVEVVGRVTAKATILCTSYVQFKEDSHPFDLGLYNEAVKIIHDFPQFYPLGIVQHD", "experiment": "Ni-NTA pull-down of the RAD52-RPA interaction", "format": "binding", "details": "3 μM RAD52, 3 μM RPA, 3 μM compound"}, "RAD52-dsDNA interaction": {"target": "T2, RAD52-dsDNA interaction (Homo sapiens, UniProt P43351)", "T2 construct": "made in house", "T2 sequence (P43351 1-418)": "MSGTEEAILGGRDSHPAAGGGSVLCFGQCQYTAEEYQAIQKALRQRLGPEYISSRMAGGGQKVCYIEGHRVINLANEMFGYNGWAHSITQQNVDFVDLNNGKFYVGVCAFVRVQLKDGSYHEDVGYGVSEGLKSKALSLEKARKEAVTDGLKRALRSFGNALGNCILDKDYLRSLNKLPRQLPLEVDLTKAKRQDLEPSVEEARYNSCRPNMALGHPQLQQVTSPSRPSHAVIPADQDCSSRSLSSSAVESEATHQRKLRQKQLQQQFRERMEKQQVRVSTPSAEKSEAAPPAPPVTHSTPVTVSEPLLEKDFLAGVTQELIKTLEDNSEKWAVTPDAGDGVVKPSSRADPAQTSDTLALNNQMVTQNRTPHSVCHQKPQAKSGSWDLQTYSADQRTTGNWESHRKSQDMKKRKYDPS", "experiment": "FRET-based RAD52-dsDNA binding assay", "details": "1 nM dsDNA, 10 nM RAD52"}, "RPA": {"target": "T3, RPA (Homo sapiens, UniProt P15927+P27694+P35244)", "T3 construct": "made in house", "T3 sequence (P27694 whole entry)": "as the sequence (P27694 whole entry partner, one chain of several) above", "T3 sequence (P15927 whole entry)": "as the sequence (P15927 whole entry partner, one chain of several) above", "T3 sequence (P35244 whole entry)": "as the sequence (P35244 whole entry partner, one chain of several) above", "experiment": "WaterLOGSY NMR binding to RPA", "details": "20-40 μM compound, 3.3 μM RPA", "text": "(§1) To confirm that the selected compounds bind RAD52, we employed water-ligand observation with gradient spectroscopy (WaterLOGSY), an NMR technique, which is based on transfer of magnetization from bulk water to the protein-bound compound of interest ([Dalvit et al., 2001], [2000]). In WaterLOGSY spectrum, if a compound binds to a protein, the compound will receive negative nuclear Overhauser effects (NOEs) due to the slow tumbling of the protein-compound complex, leading to a positive WaterLOGSY peak. […] Similarly, the binding of ‘6’to RAD52 is evident from the positive WaterLOGSY peaks that are clearly detected for this compound (Figure 3a).\n(§2) Compound binding to RAD52 and RPA proteins was analyzed using water-ligand observation with gradient spectroscopy (WaterLOGSY) NMR experiments ([Dalvit et al., 2001], [2000]). The WaterLOGSY spectra of compounds in the presence of RAD52 or RPA were acquired using a water NOE mixing time of 1 s and a T2 relaxation filter of 50 ms just before data acquisition to suppress the broad signals derived from protein. The protein buffer used in the experiments contains 10 mM Tris-d11, 75 mM KCl, 0.25 mM EDTA, pH 7.5, and 10% D20. All NMR data were acquired on a Bruker Avance II 800 MHz NMR spectrometer equipped with a sensitive cryoprobe and recorded at 25°C. The ^1H chemical shifts were referenced to 2,2-dimethyl-2-silapentane-5-sulfonate (DSS). NMR spectra were processed using NMR Pipe ([Delaglio et al., 1995]) and analysed using NMR View ([Johnson and Blevins, 1994])."}, "MUS81": {"tested_on": "MUS81", "experiment": "Anaphase bridges in aphidicolin-treated cells (MUS81 activity)", "format": "cell-based, human", "details": "GM01604, 0.2 µM aphidicolin 24h, increasing concentration of compound", "procedure": "Figure 5. Inhibiting the RAD52-ssDNA interaction interferes with RAD52/MUS81-mediated DSB formation essential for replication fork recovery in check point deficient cells. (a) Representative images showing fields of cells from the comet assay for untreated, as well as from UCN01 (300 nM) and HU (2 mM) treated cells in the presence and absence of ‘1’, ‘6’, and siRAD52. (b) ‘1’ and ‘6’ at 1 or 25 μM recapitulate RAD52 depletion. GM1604 cells, transfected or not with siRNAs against RAD52, were treated as indicated, in the presence or absence of the inhibitor. At the end of treatment, DSBs were analyzed by neutral comet assay. Data are presented as the mean ± SEM from two independent experiments; p values are shown in the graph when differences are statistically significant. (c–d) Inhibitors ‘1’ and ‘6’, respectively decrease the mean tail moment following HU treatment with IC50 values ranging from mid nanomolar to low micromolar. Cells were treated as in (b). Data are from three independent experiments. DOI: http://dx.doi.org/10.7554/eLife.14740.012 Figure 5—figure supplement 1. […] (a) GM01604 wild-type fibroblasts were transfected with CTRL or MUS81 siRNA. Forty eight hours after transfection the fibroblasts were lysed and analysed by WB with the indicated antibodies. […] (c) The presence of anaphase bridges, as shown in the representative images, was scored in DAPI-stained cells. […]"}, "RAD52": {"target": "T4, RAD52 (Homo sapiens, UniProt P43351)", "T4 construct": "made in house", "T4 sequence (P43351 1-418)": "T2 sequence (P43351 1-418)", "experiment": "WaterLOGSY NMR binding to RAD52", "details": "20-40 μM compound, 3.3 μM RAD52", "text": "as §1, §2"}},
  "data": [
    {"compound": "Oc1cc(O)c2c(c1)O[C@H](c1cc(O)c(O)c(O)c1)[C@H](O)C2", "note": "[Compound 1, (−)−Epigallocatechin]", "values": [
      {"measurement": "effect on the RAD52-RPA interaction", "setting": "[1]", "result": "neither ‘1’ nor ‘6’ interfered with the interaction between the two proteins"},
      {"measurement": "effect on the RAD52-dsDNA interaction", "setting": "RAD52-dsDNA interaction", "result": "had no effect on the RAD52-dsDNA interaction"},
      {"measurement": "binding to RPA (WaterLOGSY)", "setting": "RPA", "result": "neither binds to RPA"},
      {"measurement": "effect on MUS81 activity (anaphase bridges)", "setting": "MUS81", "result": "does not affect MUS81 activity"},
      {"measurement": "binding to RAD52 (WaterLOGSY)", "setting": "RAD52", "result": "physically interact with RAD52 protein"}
    ]}
  ]
}
